Data from ChEMBL document CHEMBL4609988, “Heterocycle amide isosteres: An approach to overcoming resistance for HIV-1 integrase strand transfer inhibitors” (Bioorg Med Chem Lett, 2020).

Experiments:
[1] = system: Human immunodeficiency virus 1; test: Ratio of EC50 for antiviral activity against HIV1 NL4-3 harboring N155H mutant to EC50 for antiviral activity against HIV1 NL4-3; format: functional
[2] = system: Human immunodeficiency virus 1; test: Antiviral activity against HIV1 NL4-3 harboring N155H mutant by cellular assay; format: functional, organism-based; details: Human immunodeficiency virus 1, NL4-3
[3] = system: Human immunodeficiency virus 1; test: Antiviral activity against HIV1 NL4-3 harboring Q148R mutant by cellular assay; format: functional, organism-based; details: Human immunodeficiency virus 1, NL4-3
[4] = system: Human immunodeficiency virus 1; test: Antiviral activity against HIV1 NL4-3 harboring […]/Q148H mutant by cellular assay; format: functional, organism-based; details: Human immunodeficiency virus 1, NL4-3
[5] = system: Human immunodeficiency virus 1; test: Ratio of EC50 for antiviral activity against HIV1 NL4-3 harboring G140S/Q148H mutant to EC50 for antiviral activity against HIV1 NL4-3; format: functional
[6] = system: Human immunodeficiency virus 1; test: Ratio of EC50 for antiviral activity against HIV1 NL4-3 harboring Q148R mutant to EC50 for antiviral activity against HIV1 NL4-3; format: functional
[7] = system: Human immunodeficiency virus 1; test: Antiviral activity against HIV1 NL4-3 by cellular assay; format: functional, organism-based; details: Human immunodeficiency virus 1, NL4-3
[8] = Clearance in rat at 1 mg/kg, iv; format: ADME, organism-based; details: in vivo
[9] = Volume of distribution at steady state in rat at 1 mg/kg, iv; format: ADME, organism-based; details: in vivo, read-out: Vdss
[10] = AUC in rat at 1 mg/kg, iv; format: ADME, organism-based; details: in vivo
[11] = target: Human immunodeficiency virus type 1 integrase (Human immunodeficiency virus 1, UniProt Q7ZJM1); test: Inhibition of HIV-1 integrase strand transfer activity
Chain of Human immunodeficiency virus type 1 integrase (Q7ZJM1 whole entry): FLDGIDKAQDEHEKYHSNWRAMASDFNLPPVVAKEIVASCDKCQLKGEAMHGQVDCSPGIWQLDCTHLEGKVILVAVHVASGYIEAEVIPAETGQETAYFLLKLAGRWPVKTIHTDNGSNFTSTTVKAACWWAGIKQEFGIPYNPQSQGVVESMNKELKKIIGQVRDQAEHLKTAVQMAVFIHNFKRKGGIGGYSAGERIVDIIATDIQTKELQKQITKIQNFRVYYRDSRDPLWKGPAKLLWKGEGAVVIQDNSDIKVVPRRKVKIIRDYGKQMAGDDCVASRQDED

| EC50 [11] | Structure (SMILES) | Ratio EC50 [1] | EC50 [2] | EC50 [3] | EC50 [4] | Ratio EC50 [5] | Ratio EC50 [6] | EC50 [7] | clearance [8] | Vd [9] | AUC [10] |
| --- | --- | --- | --- | --- | --- | --- | --- | --- | --- | --- | --- |
| – | CC1(C)OCCn2c1nc(C(=O)NCc1ccc(F)cc1)c(O)c2=O | 47 | 140 nM | 300 nM | > 8000 nM | >2666 | 99 | 3 nM | – | – | – |
| – | Cn1c(Cc2ccc(F)cc2)cnc1-c1nc2n(c(=O)c1O)CCOC2(C)C | – | 36 nM | 61 nM | 530 nM | – | – | 10 nM | 11 mL/min/kg | 0.5 L/kg | 3.92 µM·h |
| > 64000 nM | CC1(C)OCCn2c1nc(-c1nc(Cl)c(Cc3ccc(F)cc3)[nH]1)c(O)c2=O | – | – | – | – | – | – | – | – | – | – |
| – | CC1(C)OCCn2c1nc(-c1ncn(Cc3ccc(F)cc3)n1)c(O)c2=O | 2 | 16 nM | 220 nM | 3700 nM | 563 | 34 | 7 nM | 52 mL/min/kg | 1.5 L/kg | 0.872 µM·h |
| – | CC1(C)OCCn2c1nc(-c1ncc(Cc3ccc(F)cc3)s1)c(O)c2=O | 11 | 34 nM | 91 nM | 540 nM | 177 | 30 | 3 nM | – | – | – |
| – | CC1(C)OCCn2c1nc(-c1nnc(Cc3ccc(F)cc3)[nH]1)c(O)c2=O | 49 | 4000 nM | 1500 nM | > 40000 nM | >500 | 19 | 81 nM | – | – | – |
| – | CC1(C)OCCn2c1nc(-c1ncc(Cc3ccc(F)cc3)[nH]1)c(O)c2=O | 0.3 | 2 nM | 33 nM | 320 nM | 54 | 6 | 6 nM | 10 mL/min/kg | 0.3 L/kg | 4.55 µM·h |
| 9300 nM | Cn1cc(Cc2ccc(F)cc2)nc1-c1nc2n(c(=O)c1O)CCOC2(C)C | – | – | – | – | – | – | – | – | – | – |
| – | Cn1c(Cc2ccc(F)cc2)nnc1-c1nc2n(c(=O)c1O)CCOC2(C)C | – | – | 450 nM | 1100 nM | – | – | 81 nM | – | – | – |
| – | CC1(C)OCCn2c1nc(-c1ncc(Cc3ccc(F)cc3)o1)c(O)c2=O | 4 | 88 nM | 330 nM | 6900 nM | 318 | 15 | 22 nM | – | – | – |
| – | CC1(C)OCCn2c1nc(-c1nnc(Cc3ccc(F)cc3)o1)c(O)c2=O | 3 | 1300 nM | 190 nM | > 40000 nM | >100 | 0.5 | 390 nM | – | – | – |
| – | CC1(C)OCCn2c1nc(-c1cc(Cc3ccc(F)cc3)[nH]n1)c(O)c2=O | 22 | 260 nM | 3000 nM | 4200 nM | 36 | 26 | 120 nM | – | – | – |
| – | CC1(C)OCCn2c1nc(-c1cn(Cc3ccc(F)cc3)cn1)c(O)c2=O | 2 | 9 nM | 26 nM | 320 nM | 80 | 7 | 4 nM | 127 mL/min/kg | 3.5 L/kg | 0.353 µM·h |
| > 30000 nM | Cc1nc(-c2nc3n(c(=O)c2O)CCOC3(C)C)nn1Cc1ccc(F)cc1 | – | – | – | – | – | – | – | – | – | – |
